Reference: the CheMixHub viscosity set

Experiment: xn = mol fraction of the nth substance listed

CCOCCO + C1COCCO1
viscosity [mPa·s], 101.33 kPa
Settings | x1 = 0.1009 | x1 = 0.2023 | x1 = 0.3051 | x1 = 0.4014 | x1 = 0.499 | x1 = 0.602 | x1 = 0.7004 | x1 = 0.8031 | x1 = 0.8976
298.15 K | 1.293 | 1.299 | 1.324 | 1.367 | 1.424 | 1.511 | 1.6 | 1.733 | 1.844
303.15 K | 1.069 | 1.066 | 1.085 | 1.119 | 1.162 | 1.228 | 1.299 | 1.4 | 1.487
308.15 K | 0.982 | 0.992 | 1 | 1.028 | 1.07 | 1.12 | 1.183 | 1.268 | 1.344

CCOCCO + Cc1ccccc1
viscosity [mPa·s], 101 kPa
Settings | 298.15 K | 308.15 K
x1 = 0.056 | 0.576 | 0.517
x1 = 0.1494 | 0.627 | 0.554
x1 = 0.2493 | 0.69 | 0.601
x1 = 0.3539 | 0.771 | 0.66
x1 = 0.449 | 0.859 | 0.723
x1 = 0.5019 | 0.915 | 0.763
x1 = 0.5488 | 0.969 | 0.802
x1 = 0.6514 | 1.107 | 0.899
x1 = 0.7465 | 1.261 | 1.007
x1 = 0.8514 | 1.468 | 1.149
x1 = 0.9527 | 1.716 | 1.317

CNC(C)=O + CO
303.15 K, 101 kPa
Settings | viscosity [mPa·s]
x1 = 0.0999 | 0.644
x1 = 0.2019 | 0.798
x1 = 0.3029 | 0.98
x1 = 0.3939 | 1.175
x1 = 0.504 | 1.457
x1 = 0.605 | 1.778
x1 = 0.6998 | 2.134
x1 = 0.7934 | 2.561
x1 = 0.8995 | 3.14

CC(C)CCO + CCOCCO
313.15 K, 101 kPa
Settings | viscosity [mPa·s]
x1 = 0.102 | 1.385
x1 = 0.2036 | 1.425
x1 = 0.8035 | 1.945

CC(CC(C)(C)C)CP(=O)(O)CC(C)CC(C)(C)C (stereo not given) + CCCCCC
298.15 K, 101 kPa
Settings | viscosity [mPa·s]
x1 = 0.0033 | 0.305
x1 = 0.0159 | 0.36
x1 = 0.0175 | 0.368
x2 = 0.0987 | 89.32
x2 = 0.1765 | 69.68
x2 = 0.2746 | 47.91
x2 = 0.4476 | 23.62
x2 = 0.642 | 9.432
x2 = 0.7262 | 5.982
x2 = 0.73 | 5.931
x2 = 0.796 | 3.39
x2 = 0.8384 | 2.461
x2 = 0.8555 | 2.122
x2 = 0.9097 | 1.221
x2 = 0.9111 | 1.203
x2 = 0.9623 | 0.504

CCOCCO + c1ccccc1
viscosity [mPa·s], 101 kPa
Settings | 298.15 K | 308.15 K
x1 = 0.0585 | 0.632 | 0.548
x1 = 0.1533 | 0.686 | 0.587
x1 = 0.2518 | 0.752 | 0.635
x1 = 0.3637 | 0.841 | 0.7
x1 = 0.4521 | 0.923 | 0.76
x1 = 0.5048 | 0.979 | 0.8
x1 = 0.5525 | 1.034 | 0.839
x1 = 0.6521 | 1.164 | 0.931
x1 = 0.7508 | 1.317 | 1.039
x1 = 0.8521 | 1.505 | 1.17
x1 = 0.9547 | 1.734 | 1.328

CCOCCO + C1CCOC1
viscosity [mPa·s], 101.33 kPa
Settings | x1 = 0.1003 | x1 = 0.2025 | x1 = 0.3008 | x1 = 0.403 | x1 = 0.5069 | x1 = 0.6012 | x1 = 0.7048 | x1 = 0.7983 | x1 = 0.8839
298.15 K | 0.593 | 0.677 | 0.787 | 0.908 | 1.057 | 1.232 | 1.503 | 1.701 | 1.898
303.15 K | 0.502 | 0.571 | 0.66 | 0.756 | 0.874 | 1.011 | 1.223 | 1.381 | 1.546
308.15 K | 0.475 | 0.539 | 0.618 | 0.702 | 0.808 | 0.93 | 1.091 | 1.242 | 1.385

CC12CCC(CC1=O)C2(C)C (stereo not given) + CCCCCCCCCC(=O)O
101.33 kPa, x2 = 0.7
Settings | viscosity [mPa·s]
298.15 K | 10.76
303.15 K | 9.184
308.05 K | 7.889
313.05 K | 6.866
318.15 K | 6.143
323.05 K | 5.9

CC(C)CCO + C1COCO1
viscosity [mPa·s], 101 kPa
Settings | x2 = 0.1168 | x2 = 0.2293 | x2 = 0.3377 | x2 = 0.4424 | x2 = 0.5434 | x2 = 0.6409 | x2 = 0.7352 | x2 = 0.8264 | x2 = 0.9146
298.15 K | 3.017 | 2.523 | 2.174 | 1.884 | 1.366 | 0.9079 | 0.8074 | 0.7367 | 0.6474
303.15 K | 2.3 | 1.806 | 1.458 | 1.167 | 0.9949 | 0.8818 | 0.7812 | 0.7104 | 0.6212
